The test system of this assay is nude mice, LX-1 lung xenograft intrarenal, tumor weight T/C. Nature of the assay: NCI In Vivo Anticancer Drug Screen. Data for tumor model Human Lung LX-1 Xenograft (intrarenal inoculation) in NU/NU Swiss (nude) mice. As to conditions: endpoint: mean tumor weight change, higher = larger tumour. The method, boiled down:
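Tumor-bearing mice receive test compound or vehicle; tumor size is then measured in each group. The treated value is divided by the vehicle value to give T/C.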

Where [1] appears, read: dose: 300.0 mg/kg/injection, schedule: Q04DX003 (sc), vehicle: saline with Tween-80.
Where [2] appears, read: dose: 600.0 mg/kg/injection, schedule: Q04DX003 (sc), vehicle: saline with Tween-80.
The mark [3] stands for this setting: dose: 2400.0 mg/kg/injection, schedule: Q04DX003 (sc), vehicle: saline with Tween-80.
The mark [4] stands for this setting: dose: 1200.0 mg/kg/injection, schedule: Q04DX003 (sc), vehicle: saline with Tween-80.

“And” between values parts separate entries of the source, which are not always exact repeats. Equal entries are not always repeated. Records with an inconclusive call do not appear.

As for `CC(=O)OCC1OC(n2ccc(N)nc2=O)C(OC(C)=O)C1OC(C)=O` (configuration not stated), the T/C (dose: 300.0 mg/kg/injection, schedule: Q04DX003 (sc), vehicle: suspension in saline) was 156 % of control; the T/C (dose: 600.0 mg/kg/injection, schedule: Q04DX003 (sc), vehicle: suspension in saline) is 84 % of control; the T/C (dose: 1200.0 mg/kg/injection, schedule: Q04DX003 (sc), vehicle: suspension in saline) was 23 % of control; the T/C (dose: 2400.0 mg/kg/injection, schedule: Q04DX003 (sc), vehicle: suspension in saline) was 94 % of control.
As to `CCC(=O)Sc1ccccc1C(=O)Nc1ccc(Cl)cc1`, the T/C by setting is: under setting [1], 97 % of control; under setting [2], 91 % of control; under setting [3], 98 % of control.
On to `S=c1[nH]cc2cnccn12`, for which the T/C is 151 % of control under setting [1], 83 % of control under setting [4] and 94 % of control under setting [3].
For `CC1CN1P1(N2CC2C)=NP(N2CC2C)(N2CC2C)=NP(N2CC2C)(N2CC2C)=N1` (configuration not stated), the T/C reads like this: (dose: 50.0 mg/kg/injection, schedule: Q01DX010 (sc), vehicle: saline) 47 % of control and 60 % of control and 67 % of control; (dose: 100.0 mg/kg/injection, schedule: Q01DX010 (sc), vehicle: saline) 14 % of control and 15 % of control and 25 % of control.
Regarding `CCN(CC)c1ccc2cc(-c3nc4ccccc4n3C)c(=O)oc2c1`, the T/C is, setting by setting: (dose: 75.0 mg/kg/injection, schedule: Q04DX003 (sc), vehicle: Klucel (hydroxypropylcellulose) (HPC)) 105 % of control; (dose: 150.0 mg/kg/injection, schedule: Q04DX003 (sc), vehicle: Klucel (hydroxypropylcellulose) (HPC)) 81 % of control.
On to `O=NN(CCCl)C(=O)Oc1cc(Cl)c(Cl)cc1Cl`, for which the T/C was 104 % of control (dose: 300.0 mg/kg/injection, schedule: Q04DX003 (sc), vehicle: Klucel (hydroxypropylcellulose) (HPC)); 53 % of control (dose: 600.0 mg/kg/injection, schedule: Q04DX003 (sc), vehicle: Klucel (hydroxypropylcellulose) (HPC)); 29 % of control (dose: 1200.0 mg/kg/injection, schedule: Q04DX003 (sc), vehicle: Klucel (hydroxypropylcellulose) (HPC)).
Regarding `CCCCCCCCSC1=C(Cl)C(=O)C(OC)=C(OC)C1=O`, the T/C (dose: 18.0 mg/kg/injection, schedule: Q04DX003 (sc), vehicle: saline with Tween-80) is 82 % of control; the T/C (dose: 36.0 mg/kg/injection, schedule: Q04DX003 (sc), vehicle: saline with Tween-80) was 81 % of control; the T/C (dose: 144.0 mg/kg/injection, schedule: Q04DX003 (sc), vehicle: saline with Tween-80) was 57 % of control.
For the compound `CN=C(N)N/N=C(\C)c1ccc2c(c1)Cc1cc(/C(C)=N/NC(N)=NC)ccc1-2`, the T/C (dose: 12.5 mg/kg/injection, schedule: Q04DX003 (sc), vehicle: saline with Tween-80) was 99 % of control; the T/C (dose: 25.0 mg/kg/injection, schedule: Q04DX003 (sc), vehicle: saline with Tween-80) was 90 % of control; the T/C (dose: 50.0 mg/kg/injection, schedule: Q04DX003 (sc), vehicle: saline with Tween-80) is 67 % of control; the T/C (dose: 100.0 mg/kg/injection, schedule: Q04DX003 (sc), vehicle: saline with Tween-80) was 69 % of control.
On to `Oc1ccc(O)cc1`, for which the T/C runs as follows: (dose: 25.0 mg/kg/injection, schedule: Q04DX003 (sc), vehicle: saline) 102 % of control; (dose: 50.0 mg/kg/injection, schedule: Q04DX003 (sc), vehicle: saline) 85 % of control and 98 % of control; (dose: 100.0 mg/kg/injection, schedule: Q04DX003 (sc), vehicle: saline) 92 % of control and 93 % of control; (dose: 200.0 mg/kg/injection, schedule: Q04DX003 (sc), vehicle: saline) 109 % of control.
Turning to `O=NN(CCCl)C(=O)NC1CCCCC1`, the T/C is 101 % of control (dose: 4.0 mg/kg/injection, schedule: Q01DX010 (ip), vehicle: saline with Tween-80); 19 % of control (dose: 8.0 mg/kg/injection, schedule: Q01DX010 (ip), vehicle: saline with Tween-80); 112 % of control (dose: 8.0 mg/kg/injection, schedule: Q01DX010 (sc), vehicle: saline with Tween-80); 64 % of control and 65 % of control (dose: 8.0 mg/kg/injection, schedule: Q04DX003 (sc), vehicle: carboxymethylcellulose (CMC)); 35 % of control (dose: 12.5 mg/kg/injection, schedule: Q04DX003 (sc), vehicle: Klucel (hydroxypropylcellulose) (HPC)); 236 % of control (dose: 13.33 mg/kg/injection, schedule: Q04DX003 (ip), vehicle: saline with Tween-80). The T/C was 11 % of control (dose: 16.0 mg/kg/injection, schedule: Q01DX010 (ip), vehicle: saline with Tween-80); 79 % of control (dose: 16.0 mg/kg/injection, schedule: Q01DX010 (sc), vehicle: saline with Tween-80); 152 % of control (dose: 26.65 mg/kg/injection, schedule: Q04DX003 (ip), vehicle: saline with Tween-80); -16 % of control (dose: 32.0 mg/kg/injection, schedule: Q01DX010 (sc), vehicle: saline with Tween-80); 45 % of control and 52 % of control (dose: 32.0 mg/kg/injection, schedule: Q04DX003 (sc), vehicle: carboxymethylcellulose (CMC)); 119 % of control (dose: 50.0 mg/kg/injection, schedule: Q04DX003 (sc), vehicle: Klucel (hydroxypropylcellulose) (HPC)). The T/C by setting is: (dose: 53.33 mg/kg/injection, schedule: Q04DX003 (ip), vehicle: saline with Tween-80) -38 % of control; (dose: 64.0 mg/kg/injection, schedule: Q04DX003 (sc), vehicle: carboxymethylcellulose (CMC)) 10 % of control and 29 % of control.
Consider `O=C1CC2(C(=O)N1CN1CCCCC1)c1ccccc1-c1ccccc12`, for which the T/C is, setting by setting: (dose: 200.0 mg/kg/injection, schedule: Q04DX003 (sc), vehicle: Klucel (hydroxypropylcellulose) (HPC)) 224 % of control; (dose: 400.0 mg/kg/injection, schedule: Q04DX003 (sc), vehicle: Klucel (hydroxypropylcellulose) (HPC)) 170 % of control.
Turning to `CNc1nc(N(C)C)nc(N(C)C)n1`, the T/C runs as follows: (dose: 12.5 mg/kg/injection, schedule: Q04DX003 (sc), vehicle: water) 177 % of control; (dose: 15.0 mg/kg/injection, schedule: Q01DX010 (ip), vehicle: water) 55 % of control; (dose: 15.0 mg/kg/injection, schedule: Q01DX010 (sc), vehicle: water) 121 % of control; (dose: 30.0 mg/kg/injection, schedule: Q01DX010 (ip), vehicle: water) 287 % of control; (dose: 30.0 mg/kg/injection, schedule: Q01DX010 (sc), vehicle: water) 56 % of control; (dose: 50.0 mg/kg/injection, schedule: Q04DX003 (ip), vehicle: water) 67 % of control. Also, the T/C reads like this: (dose: 60.0 mg/kg/injection, schedule: Q01DX010 (ip), vehicle: water) 71 % of control; (dose: 60.0 mg/kg/injection, schedule: Q01DX010 (sc), vehicle: water) 69 % of control; (dose: 100.0 mg/kg/injection, schedule: Q04DX003 (ip), vehicle: water) 59 % of control; (dose: 100.0 mg/kg/injection, schedule: Q04DX003 (sc), vehicle: water) 114 % of control and 218 % of control; (dose: 120.0 mg/kg/injection, schedule: Q01DX010 (sc), vehicle: water) 64 % of control; (dose: 200.0 mg/kg/injection, schedule: Q04DX003 (ip), vehicle: water) 54 % of control.
In the case of `COc1cccc2c1C(=O)c1c(O)c3c(c(O)c1C2=O)C[C@@](O)(/C(C)=N/NC(=O)c1ccc(Cl)cc1)C[C@@H]3OC1CC(N)C(O)C(C)O1` (some centres not stated), the T/C (dose: 4.0 mg/kg/injection, schedule: Q01DX010 (sc), vehicle: water) is 156 % of control; the T/C (dose: 6.0 mg/kg/injection, schedule: Q04DX003 (sc), vehicle: water) was 64 % of control; the T/C (dose: 8.0 mg/kg/injection, schedule: Q01DX010 (sc), vehicle: water) is 42 % of control; the T/C (dose: 16.0 mg/kg/injection, schedule: Q01DX010 (sc), vehicle: water) was 43 % of control; the T/C (dose: 96.0 mg/kg/injection, schedule: Q04DX003 (sc), vehicle: water) is 20 % of control and 33 % of control.
For the compound `NC(=S)N/N=C/c1ccc(OC(=O)COc2ccccc2)cn1`, the T/C was 77 % of control under setting [1], 73 % of control under setting [2] and 37 % of control under setting [4].
Regarding `CCc1ncnc2cc(OCC3CO3)c(OC)cc12` (configuration not stated), the T/C was 53 % of control (dose: 25.0 mg/kg/injection, schedule: Q04DX003 (sc), vehicle: suspension in saline); 64 % of control (dose: 50.0 mg/kg/injection, schedule: Q04DX003 (sc), vehicle: suspension in saline); 24 % of control (dose: 200.0 mg/kg/injection, schedule: Q04DX003 (sc), vehicle: suspension in saline).
